± gives the expanded uncertainty stated by the source.
Test: xn = mol fraction of the nth substance listed
Conditions: 100 kPa, Liquid; for viscosity: Falling or rolling sphere viscometry; for mass density: Vibrating tube method

C1CCC(C2CCCCC2)CC1 [1,1'-bicyclohexyl] + CCCCCCCCCCCC
Conditions | mass density [kg/m3] | viscosity [mPa·s]
293.15 K, x2 = 0 | 886.05 ± 0.89 | 4.003 ± 0.085
293.15 K, x2 = 0.1055 | 869.17 ± 0.88 | 3.406 ± 0.073
293.15 K, x2 = 0.2016 | 854.56 ± 0.86 | 3 ± 0.064
293.15 K, x2 = 0.3019 | 839.7 ± 0.85 | 2.637 ± 0.056
293.15 K, x2 = 0.398 | 825.91 ± 0.83 | 2.369 ± 0.05
293.15 K, x2 = 0.5006 | 811.71 ± 0.82 | 2.166 ± 0.046
293.15 K, x2 = 0.5953 | 798.95 ± 0.81 | 1.998 ± 0.043
293.15 K, x2 = 0.6911 | 786.49 ± 0.8 | 1.839 ± 0.039
293.15 K, x2 = 0.7985 | 772.97 ± 0.78 | 1.697 ± 0.036
293.15 K, x2 = 0.8888 | 761.97 ± 0.77 | 1.62 ± 0.034
298.15 K, x2 = 0 | 882.44 ± 0.89 | 3.53 ± 0.075
298.15 K, x2 = 0.1055 | 865.58 ± 0.87 | 3.025 ± 0.064
298.15 K, x2 = 0.2016 | 850.98 ± 0.86 | 2.681 ± 0.057
298.15 K, x2 = 0.3019 | 836.11 ± 0.84 | 2.366 ± 0.05
298.15 K, x2 = 0.398 | 822.33 ± 0.83 | 2.136 ± 0.045
298.15 K, x2 = 0.5006 | 808.14 ± 0.82 | 1.955 ± 0.042
298.15 K, x2 = 0.5953 | 795.38 ± 0.8 | 1.811 ± 0.039
298.15 K, x2 = 0.6911 | 782.91 ± 0.79 | 1.672 ± 0.036
298.15 K, x2 = 0.7985 | 769.38 ± 0.78 | 1.548 ± 0.033
298.15 K, x2 = 0.8888 | 758.37 ± 0.77 | 1.466 ± 0.031
303.15 K, x2 = 0 | 878.84 ± 0.88 | 3.137 ± 0.067
303.15 K, x2 = 0.1055 | 861.99 ± 0.87 | 2.706 ± 0.058
303.15 K, x2 = 0.2016 | 847.4 ± 0.86 | 2.411 ± 0.051
303.15 K, x2 = 0.3019 | 832.52 ± 0.84 | 2.138 ± 0.046
303.15 K, x2 = 0.398 | 818.74 ± 0.83 | 1.938 ± 0.041
303.15 K, x2 = 0.5006 | 804.55 ± 0.81 | 1.777 ± 0.038
303.15 K, x2 = 0.5953 | 791.78 ± 0.8 | 1.652 ± 0.035
303.15 K, x2 = 0.6911 | 779.31 ± 0.79 | 1.529 ± 0.033
303.15 K, x2 = 0.7985 | 765.77 ± 0.78 | 1.417 ± 0.03
303.15 K, x2 = 0.8888 | 754.75 ± 0.77 | 1.331 ± 0.028
308.15 K, x2 = 0 | 875.25 ± 0.88 | 2.81 ± 0.06
308.15 K, x2 = 0.1055 | 858.41 ± 0.87 | 2.438 ± 0.052
308.15 K, x2 = 0.2016 | 843.81 ± 0.85 | 2.182 ± 0.046
308.15 K, x2 = 0.3019 | 828.94 ± 0.84 | 1.943 ± 0.041
308.15 K, x2 = 0.398 | 815.15 ± 0.82 | 1.766 ± 0.038
308.15 K, x2 = 0.5006 | 800.96 ± 0.81 | 1.624 ± 0.035
308.15 K, x2 = 0.5953 | 788.19 ± 0.8 | 1.513 ± 0.032
308.15 K, x2 = 0.6911 | 775.71 ± 0.79 | 1.405 ± 0.03
308.15 K, x2 = 0.7985 | 762.15 ± 0.77 | 1.305 ± 0.028
308.15 K, x2 = 0.8888 | 751.13 ± 0.76 | 1.223 ± 0.026
313.15 K, x2 = 0 | 871.66 ± 0.88 | 2.532 ± 0.054
313.15 K, x2 = 0.1055 | 854.82 ± 0.86 | 2.209 ± 0.047
313.15 K, x2 = 0.2016 | 840.23 ± 0.85 | 1.985 ± 0.042
313.15 K, x2 = 0.3019 | 825.35 ± 0.83 | 1.776 ± 0.038
313.15 K, x2 = 0.398 | 811.56 ± 0.82 | 1.618 ± 0.034
313.15 K, x2 = 0.5006 | 797.36 ± 0.81 | 1.492 ± 0.032
313.15 K, x2 = 0.5953 | 784.58 ± 0.79 | 1.393 ± 0.03
313.15 K, x2 = 0.6911 | 772.09 ± 0.78 | 1.298 ± 0.028
313.15 K, x2 = 0.7985 | 758.53 ± 0.77 | 1.206 ± 0.026
313.15 K, x2 = 0.8888 | 747.5 ± 0.76 | 1.131 ± 0.024
318.15 K, x2 = 0 | 868.08 ± 0.87 | 2.296 ± 0.049
318.15 K, x2 = 0.1055 | 851.24 ± 0.86 | 2.012 ± 0.043
318.15 K, x2 = 0.2016 | 836.64 ± 0.85 | 1.815 ± 0.039
318.15 K, x2 = 0.3019 | 821.76 ± 0.83 | 1.629 ± 0.035
318.15 K, x2 = 0.398 | 807.96 ± 0.82 | 1.489 ± 0.032
318.15 K, x2 = 0.5006 | 793.76 ± 0.8 | 1.377 ± 0.029
318.15 K, x2 = 0.5953 | 780.98 ± 0.79 | 1.288 ± 0.027
318.15 K, x2 = 0.6911 | 768.48 ± 0.78 | 1.203 ± 0.026
318.15 K, x2 = 0.7985 | 754.91 ± 0.77 | 1.119 ± 0.024
318.15 K, x2 = 0.8888 | 743.86 ± 0.76 | 1.05 ± 0.022
323.15 K, x2 = 0 | 864.5 ± 0.87 | 2.092 ± 0.045
323.15 K, x2 = 0.1055 | 847.66 ± 0.86 | 1.842 ± 0.039
323.15 K, x2 = 0.2016 | 833.06 ± 0.84 | 1.667 ± 0.036
323.15 K, x2 = 0.3019 | 818.17 ± 0.83 | 1.501 ± 0.032
323.15 K, x2 = 0.398 | 804.36 ± 0.81 | 1.376 ± 0.029
323.15 K, x2 = 0.5006 | 790.16 ± 0.8 | 1.275 ± 0.027
323.15 K, x2 = 0.5953 | 777.36 ± 0.79 | 1.195 ± 0.025
323.15 K, x2 = 0.6911 | 764.85 ± 0.78 | 1.119 ± 0.024
323.15 K, x2 = 0.7985 | 751.27 ± 0.76 | 1.041 ± 0.022
323.15 K, x2 = 0.8888 | 740.21 ± 0.75 | 0.978 ± 0.021
328.15 K, x2 = 0 | 860.93 ± 0.87 | 1.915 ± 0.041
328.15 K, x2 = 0.1055 | 844.08 ± 0.85 | 1.693 ± 0.036
328.15 K, x2 = 0.2016 | 829.47 ± 0.84 | 1.536 ± 0.033
328.15 K, x2 = 0.3019 | 814.58 ± 0.82 | 1.389 ± 0.03
328.15 K, x2 = 0.398 | 800.76 ± 0.81 | 1.276 ± 0.027
328.15 K, x2 = 0.5006 | 786.54 ± 0.8 | 1.184 ± 0.025
328.15 K, x2 = 0.5953 | 773.74 ± 0.78 | 1.112 ± 0.024
328.15 K, x2 = 0.6911 | 761.22 ± 0.77 | 1.043 ± 0.022
328.15 K, x2 = 0.7985 | 747.63 ± 0.76 | 0.973 ± 0.021
328.15 K, x2 = 0.8888 | 736.56 ± 0.75 | 0.914 ± 0.019
333.15 K, x2 = 0 | 857.35 ± 0.86 | 1.762 ± 0.038
333.15 K, x2 = 0.1055 | 840.5 ± 0.85 | 1.563 ± 0.033
333.15 K, x2 = 0.2016 | 825.89 ± 0.83 | 1.423 ± 0.03
333.15 K, x2 = 0.3019 | 810.98 ± 0.82 | 1.288 ± 0.027
333.15 K, x2 = 0.398 | 797.16 ± 0.81 | 1.186 ± 0.025
333.15 K, x2 = 0.5006 | 782.93 ± 0.79 | 1.104 ± 0.024
333.15 K, x2 = 0.5953 | 770.11 ± 0.78 | 1.039 ± 0.022
333.15 K, x2 = 0.6911 | 757.59 ± 0.77 | 0.976 ± 0.021
333.15 K, x2 = 0.7985 | 743.98 ± 0.76 | 0.91 ± 0.019
333.15 K, x2 = 0.8888 | 732.9 ± 0.75 | 0.856 ± 0.018

Source: the NIST ThermoML archive (doi:10.1021/acs.jced.8b00438)
